In article PMC12433258, “Binding Differences of the Peptide‐Substrate–Binding Domain of Collagen Prolyl 4‐Hydroxylases I and II for Proline‐ and Hydroxyproline‐Rich Peptides” (Proteins, 2025):
Like-named read-outs stand apart in the source and are kept apart here. No end group written: not given here.

What was measured:
[1] = biological target: T1, PSB‐I^143–238 construct (peptide‐substrate–binding domain of C‐P4H‐I α‐subunit) (Homo sapiens, UniProt P13674); test: ITC binding of proline‐rich peptides to the PSB‐I^143–238 construct; conditions: 25°C, 20 mM Bis‐Tris, 100 mM glycine; for ΔG / ΔH / −TΔS: pH 6.8, fixed n = 1, average ± SD of three measurements
T1 construct: made in house; host or cells: E. coli Rosetta(DE3)pLysS, pET22b(+)
T1 sequence (P13674 160-255): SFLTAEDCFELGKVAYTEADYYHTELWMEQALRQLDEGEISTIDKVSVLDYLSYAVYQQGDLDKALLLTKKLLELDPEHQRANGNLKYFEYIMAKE
Text: The PSB‐I^143–238 construct was cloned using standard molecular biology protocols, and a codon‐optimized P4ha1 cDNA for the full‐length C‐P4H‐I α‐subunit (GenScript Biotech Corporation, New Jersey, USA) was used as the template. This construct was amplified using a forward primer containing an NdeI site (underlined) (5′‐[…]‐3′) and a reverse primer containing an XhoI site (underlined) (5′‐[…]‐3′). The amplified product was digested with NdeI and XhoI and ligated into a pET22b(+) plasmid (Novagen, Wisconsin, USA) in‐frame with a C‐terminal His6‐tag, and its sequence (Ser143‐Glu238 (Figure 1A), with C‐terminal Leu‐Glu‐His6–tag) was verified by DNA sequencing in the Biocenter Oulu Sequencing Centre. PSB‐I^143–238 was expressed using Rosetta(DE3)pLysS cells in LB medium containing 100 μg/mL ampicillin and 34 μg/mL chloramphenicol. The cells were grown at 37°C using a shaker at 200 rpm until the OD600 reached 0.6–0.8, after which protein expression was induced using 1‐mM isopropyl β‐D‐1‐thiogalactopyranoside and incubated at 30°C for another 4 h. The cells were harvested and resuspended in 20 mL of 20‐mM Bis‐Tris, 100 mM glycine, pH 6.8 lysis buffer. After cell lysis by sonication, the supernatant was loaded onto a 20 mL Ni‐NTA chelating Sepharose column, pre‐equilibrated with the lysis buffer. Unbound proteins were washed away with 100 mL of the same buffer, and the bound proteins were eluted with a 100 mL linear imidazole gradient (0.0–0.5 M). The eluted fractions were analyzed by SDS‐PAGE to identify PSB‐I containing fractions, which were pooled, concentrated using the Amicon ultracentrifugal filter ([…] molecular weight cut‐off) and loaded on a Superdex75 16/600 preparative grade size‐exclusion chromatography (SEC) column (GE Healthcare, Chicago, USA), pre‐equilibrated with a 20 mM Bis‐Tris, 100 mM glycine, pH 6.8, SEC buffer. Fractions with PSB‐I^143–238 of high purity, based on SDS‐PAGE analysis, were pooled and concentrated to about 22 mg/mL (measured with a NanoDrop 1000, Thermo Scientific, Waltham, USA) and stored in the SEC buffer in 100 μL aliquots at −70°C. All characterizations, crystallization, and crystal testing experiments described below were performed in the Biocenter Oulu core facilities.
(§1) The peptides used in these studies were purchased from TAG Copenhagen A/S (Frederiksberg, Denmark). These peptides (9 residues) start with a free amino group and end with a free carboxylate group. The correct mass and the purity of the peptides (> 95% pure) were analyzed by the company using HPLC and mass spectrometry.
The protein samples of the PSB‐I^143–238 and PSB‐II constructs were prepared at a concentration of 50 μM in SEC buffer, being 20 mM Bis‐Tris, 100 mM glycine, pH 6.8 for PSB‐I^143–238 and 20 mM Tris, 50 mM NaCl, 50 mM glycine, pH 8.0 for PSB‐II (as described earlier). The peptides were dissolved in SEC buffer at a concentration of 3 mM by diluting a 100 mM stock solution in water with SEC buffer. The ITC measurements were carried out at 25°C, using the MicroCal iTC‐200 (Malvern Panalytical Ltd., Malvern, UK). The peptide solution was titrated into a sample cell of 200 μL volume from a syringe that was rotating at 750 rpm. First, 0.4 μL of the peptide solution was injected with a duration of 0.8 s; then, 12 consecutive injections were done, each with a volume of 3 μL, a duration of 6 s, and 180 s spacing time between each injection. For each peptide, at first only buffer in the sample cell (without protein) was titrated, and data were collected as control. Then the data for the PSB sample titrated with the peptide‐containing buffer were collected. The titration data were processed with Origin 7 (OriginLab, Massachusetts, USA) specifically designed for ITC data analysis. The control data that measured the residual heat effect from the peptide dilution were subtracted from the data of the peptide titration with PSB in the sample cell. […]

[2] = biological target: T2, PSB‐II^142–236 construct (peptide‐substrate–binding domain of C‐P4H‐II α‐subunit) (Homo sapiens, UniProt O15460); test: ITC binding of proline‐rich peptides to the PSB‐II construct; conditions: 25°C, 50 μM protein, 3 mM peptide, 20 mM Tris, 50 mM NaCl, 50 mM glycine, pH 8.0, one‐set‐of‐sites, fixed n = 1, average ± SD of three measurements
T2 construct: Met-His6 (N); made in house
T2 sequence (O15460 163-257): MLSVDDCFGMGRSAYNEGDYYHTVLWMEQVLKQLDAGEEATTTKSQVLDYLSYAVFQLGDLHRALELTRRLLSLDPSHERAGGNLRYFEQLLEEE
Text: Additional experiments were done with a longer PSB‐I construct, PSB‐I^144–244 (residues Phe144‐Ser244 (Figure 1A), extended by a C‐terminal Leu‐Glu‐(His)6–tag) and with the PSB‐II^142–236 construct (residues Met142‐Glu236 (Figure 1A), preceded at the N‐terminus by a Met‐His6–tag). The expression and purification protocols for the PSB‐I^144–244 construct and the PSB‐II^142–236 construct have been described earlier.
as §1
The protein samples of the PSB‐I^143–238 and PSB‐II constructs were prepared at a concentration of 50 μM in SEC buffer, being 20 mM Bis‐Tris, 100 mM glycine, pH 6.8 for PSB‐I^143–238 and 20 mM Tris, 50 mM NaCl, 50 mM glycine, pH 8.0 for PSB‐II (as described earlier). […] The control data that measured the residual heat effect from the peptide dilution were subtracted from the data of the peptide titration with PSB in the sample cell. The integrated data were analyzed using the one‐set‐of‐sites fitting model with a fixed stoichiometry (n = 1). […]

C‐P4H‐II = conditions: cited from earlier work
Text: (§2) Prolines that occur in the PxGP motif cannot be hydroxylated by the C‐P4H catalytic domain, as they are in the X‐position of the XYG‐repeat and the x‐residue at the Y‐position cannot be a proline. […] Low affinity of the (Gly‐Pro‐4Hyp)5 peptide for the PSB co ...

C‐P4H‐I = conditions: cited from earlier work
Text: as §2

PSB‐I construct = conditions: previous C‐P4H peptide binding studies; cited from earlier work
Text: as §2

PSB‐II construct = conditions: previous C‐P4H peptide binding studies; cited from earlier work
Text: as §2

[3] = biological target: T2, PSB‐II^142–236 construct (peptide‐substrate–binding domain of C‐P4H‐II α‐subunit); conditions: ITC, data described previously, average ± SD of three measurements; cited from earlier work
[4] = biological target: DD‐I construct (double domain construct of the α‐subunit of C‐P4H‐I); conditions: calorimetric binding, reported previously; read-out: Affinity (K D) for the PSB‐I domain of the DD‐I construct; cited from earlier work
Text: The affinity properties of the PSB‐I and PSB‐II constructs, as obtained from ITC peptide binding experiments, are shown in Table 2 and Figure S3.

ΔG [1] | ΔH [1] | −TΔS [1] | Compound | also measured
-5.51 ± 0.02 kcal/mol | -12.4 ± 0.5 kcal/mol | 6.86 ± 0.49 kcal/mol | C[C@H](NC(=O)[C@@H]1CCCN1C(=O)CNC(=O)[C@@H]1CCCN1C(=O)[C@@H]1CCCN1)C(=O)NCC(=O)N1CCC[C@H]1C(=O)N1CCC[C@H]1C(=O)NCC(=O)O [PPG‐PAG‐PPG] | –
-5.57 ± 0.02 kcal/mol | -13.2 ± 1.2 kcal/mol | 7.67 ± 1.17 kcal/mol | PPGPEGPPG [PPG‐PEG‐PPG] | –
-6.06 ± 0.04 kcal/mol | -14.9 ± 0.4 kcal/mol | 8.87 ± 0.37 kcal/mol | PPGPRGPPG [PPG‐PRG‐PPG] | –

More lines, now with the values behind:

Compound | ΔG [1] | ΔH [1] | −TΔS [1] | also measured
C[C@H](NC(=O)[C@@H]1CCCN1C(=O)CNC(=O)[C@@H]1C[C@@H](O)CN1C(=O)[C@@H]1CCCN1)C(=O)NCC(=O)N1CCC[C@H]1C(=O)N1C[C@H](O)C[C@H]1C(=O)NCC(=O)O [POG‐PAG‐POG] | -5.60 ± 0.08 kcal/mol | -12.7 ± 0.2 kcal/mol | 7.07 ± 0.25 kcal/mol | Kd ([1]; 50 μM protein in cell, 3 mM peptide in syringe, pH 6.8, one‐set‐of‐sites model, fixed n = 1, average ± SD of three measurements): 79.6 ± 9.6 µM; Kd [2]: 26.2 ± 1.9 µM
(Gly‐Pro‐4Hyp)5 [model peptide with a hydroxyproline at the Y‐position of each tripeptide repeat] | – | – | – | Substrate of C‐P4H‐II (C‐P4H‐II): not a substrate; Substrate of C‐P4H‐I (C‐P4H‐I): not a substrate; Affinity for the PSB‐I construct relative to (PPG)5 (PSB‐I construct): much lower affinity than the (PPG)5 substrate peptide; Affinity for the PSB‐II construct relative to (PPG)5 (PSB‐II construct): much lower affinity than the (PPG)5 substrate peptide
PPGPPGPPG [(PPG)3, PPG‐PPG‐PPG peptide] | -4.83 ± 0.06 kcal/mol | -13.6 ± 1.7 kcal/mol | 8.77 ± 1.66 kcal/mol | K D [3]: Not detectable; Kd [4]: 144 µM
PPPPPPPPP [P9, (Pro)9 peptide] | -5.59 ± 0.10 kcal/mol | -9.5 ± 0.8 kcal/mol | 3.95 ± 0.82 kcal/mol | Kd [3]: > 1500 µM; Kd [4]: 9.8 µM
